Assay results published in ChEMBL document CHEMBL3046898, “Synthesis and characterization of flurbiprofen hydrazide derivatives as potential anti-HCV, anticancer and antimicrobial agents” (2013).
The source made the active and inactive calls. The calls are words filed in the database; no cut-off is given here.

Key:
Micrococcus lylae [1] = assay: Antibacterial activity against Micrococcus lylae at 6.25 to 200 ug/ml after 24 hrs by microwell dilution method; format: functional, organism-based
Pseudomonas aeruginosa [2] = assay: Antibacterial activity against Pseudomonas aeruginosa at 6.25 to 200 ug/ml after 24 hrs by microwell dilution method; format: functional, organism-based
Proteus vulgaris [3] = assay: Antibacterial activity against Proteus vulgaris at 6.25 to 200 ug/ml after 24 hrs by microwell dilution method; format: functional, organism-based
Escherichia coli [4] = assay: Antibacterial activity against Escherichia coli at 6.25 to 200 ug/ml after 24 hrs by microwell dilution method; format: functional, organism-based
Staphylococcus cohnii [5] = assay: Antibacterial activity against Staphylococcus cohnii at 6.25 to 200 ug/ml after 24 hrs by microwell dilution assay; format: functional, organism-based
Staphylococcus aureus [6] = assay: Antibacterial activity against Staphylococcus aureus at 6.25 to 200 ug/ml after 24 hrs by microwell dilution assay; format: functional, organism-based
Micrococcus luteus [7] = assay: Antibacterial activity against Micrococcus luteus at 6.25 to 200 ug/ml after 24 hrs by microwell dilution method; format: functional, organism-based
Aspergillus = assay: Antifungal activity against Aspergillus at 10 mg/ml after 72 hrs by disc diffusion method; format: functional, organism-based
Pichia membranifaciens = assay: Antifungal activity against Pichia membranifaciens at 10 mg/ml after 48 hrs by disc diffusion method; format: functional, organism-based
Kluyveromyces marxianus = assay: Antifungal activity against Kluyveromyces marxianus at 10 mg/ml after 48 hrs by disc diffusion method; format: functional, organism-based
[8] = system: Schwanniomyces occidentalis; assay: Antifungal activity against Schwanniomyces occidentalis at 10 mg/ml after 48 hrs by disc diffusion method; format: functional, organism-based
Nakaseomyces glabratus = assay: Antifungal activity against Candida glabrata at 10 mg/ml after 48 hrs by disc diffusion method; format: functional, organism-based
Candida parapsilosis = assay: Antifungal activity against Candida parapsilosis at 10 mg/ml after 48 hrs by disc diffusion method; format: functional, organism-based
Candida tropicalis = assay: Antifungal activity against Candida tropicalis at 10 mg/ml after 48 hrs by disc diffusion method; format: functional, organism-based
Candida albicans = assay: Antifungal activity against Candida albicans at 10 mg/ml after 48 hrs by disc diffusion method; format: functional, organism-based
Photorhabdus luminescens [9] = assay: Antibacterial activity against Photorhabdus luminescens at 10 mg/ml after 24 hrs by disc diffusion method; format: functional, organism-based
Klebsiella aerogenes [10] = assay: Antibacterial activity against Enterobacter aerogenes at 6.25 to 200 ug/ml after 24 hrs by microwell dilution method; format: functional, organism-based
Photorhabdus luminescens [11] = assay: Antibacterial activity against Photorhabdus luminescens at 6.25 to 200 ug/ml after 24 hrs by microwell dilution method; format: functional, organism-based
[12] = system: Acinetobacter radioresistens; assay: Antibacterial activity against Acinetobacter radioresistens at 6.25 to 200 ug/ml after 24 hrs by microwell dilution method; format: functional, organism-based
Salmonella paratyphi [13] = assay: Antibacterial activity against Salmonella paratyphi at 6.25 to 200 ug/ml after 24 hrs by microwell dilution method; format: functional, organism-based; details: Salmonella enterica subsp. enterica serovar Paratyphi A
Klebsiella aerogenes [14] = assay: Antibacterial activity against Enterobacter aerogenes at 10 mg/ml after 24 hrs by disc diffusion method; format: functional, organism-based
[15] = system: Acinetobacter radioresistens; assay: Antibacterial activity against Acinetobacter radioresistens at 10 mg/ml after 24 hrs by disc diffusion method; format: functional, organism-based
Salmonella paratyphi [16] = assay: Antibacterial activity against Salmonella paratyphi at 10 mg/ml after 24 hrs by disc diffusion method; format: functional, organism-based; details: Salmonella enterica subsp. enterica serovar Paratyphi A
Micrococcus lylae [17] = assay: Antibacterial activity against Micrococcus lylae at 10 mg/ml after 24 hrs by disc diffusion method; format: functional, organism-based
Pseudomonas aeruginosa [18] = assay: Antibacterial activity against Pseudomonas aeruginosa at 10 mg/ml after 24 hrs by disc diffusion method; format: functional, organism-based
Escherichia coli [19] = assay: Antibacterial activity against Escherichia coli at 10 mg/ml after 24 hrs by disc diffusion method; format: functional, organism-based
Proteus vulgaris [20] = assay: Antibacterial activity against Proteus vulgaris at 10 mg/ml after 24 hrs by disc diffusion method; format: functional, organism-based
Micrococcus luteus [21] = assay: Antibacterial activity against Micrococcus luteus at 10 mg/ml after 24 hrs by disc diffusion method; format: functional, organism-based
Staphylococcus aureus [22] = assay: Antibacterial activity against Staphylococcus aureus at 10 mg/ml after 24 hrs by disc diffusion method; format: functional
Staphylococcus cohnii [23] = assay: Antibacterial activity against Staphylococcus cohnii at 10 mg/ml after 24 hrs by disc diffusion method; format: functional
Hepacivirus hominis = assay: Inhibition of HCV N-terminal His-tagged NS5B RNA dependent RNA polymerase expressed in Escherichia coli DH5alpha using poly rA/U12 as primer at 200 uM after 60 mins by liquid scintillation counting

| SMILES | Activity (Micrococcus lylae [1]) | Activity (Pseudomonas aeruginosa [2]) | Activity (Proteus vulgaris [3]) | Activity (Escherichia coli [4]) | Activity (Staphylococcus cohnii [5]) | Activity (Staphylococcus aureus [6]) | Activity (Micrococcus luteus [7]) | Activity (Aspergillus) | Activity (Pichia membranifaciens) | Activity (Kluyveromyces marxianus) | Activity [8] | Activity (Nakaseomyces glabratus) | Activity (Candida parapsilosis) | Activity (Candida tropicalis) | Activity (Candida albicans) | Activity (Photorhabdus luminescens [9]) | Activity (Klebsiella aerogenes [10]) | Activity (Photorhabdus luminescens [11]) | Activity [12] | Activity (Salmonella paratyphi [13]) | also measured |
| --- | --- | --- | --- | --- | --- | --- | --- | --- | --- | --- | --- | --- | --- | --- | --- | --- | --- | --- | --- | --- | --- |
| CCNC(=S)NNC(=O)C(C)c1ccc(-c2ccccc2)c(F)c1 (configuration not stated) | inactive | inactive | inactive | inactive | inactive | inactive | inactive | inactive | inactive | inactive | inactive | inactive | inactive | inactive | inactive | inactive | inactive | inactive | inactive | inactive | Activity (Klebsiella aerogenes [14]): inactive; Activity [15]: inactive; Activity (Salmonella paratyphi [16]): inactive; Activity (Micrococcus lylae [17]): inactive; Activity (Pseudomonas aeruginosa [18]): inactive; Activity (Escherichia coli [19]): inactive; Activity (Proteus vulgaris [20]): inactive; Activity (Micrococcus luteus [21]): inactive; Activity (Staphylococcus aureus [22]): inactive; Activity (Staphylococcus cohnii [23]): inactive; inhibition (Hepacivirus hominis): 8% |
| CNC(=S)NNC(=O)C(C)c1ccc(-c2ccccc2)c(F)c1 (configuration not stated) | inactive | inactive | inactive | inactive | inactive | inactive | inactive | inactive | inactive | inactive | inactive | inactive | inactive | inactive | inactive | inactive | inactive | inactive | inactive | inactive | Activity (Klebsiella aerogenes [14]): inactive; Activity [15]: inactive; Activity (Salmonella paratyphi [16]): inactive; Activity (Micrococcus lylae [17]): inactive; Activity (Pseudomonas aeruginosa [18]): inactive; Activity (Escherichia coli [19]): inactive; Activity (Proteus vulgaris [20]): inactive; Activity (Micrococcus luteus [21]): inactive; Activity (Staphylococcus aureus [22]): inactive; Activity (Staphylococcus cohnii [23]): inactive; inhibition (Hepacivirus hominis): 8% |
| C=CCNC(=S)NNC(=O)C(C)c1ccc(-c2ccccc2)c(F)c1 (configuration not stated) | inactive | inactive | inactive | inactive | inactive | inactive | inactive | inactive | inactive | inactive | inactive | inactive | inactive | inactive | inactive | inactive | inactive | inactive | inactive | inactive | Activity (Klebsiella aerogenes [14]): inactive; Activity [15]: inactive; Activity (Salmonella paratyphi [16]): inactive; Activity (Micrococcus lylae [17]): inactive; Activity (Pseudomonas aeruginosa [18]): inactive; Activity (Escherichia coli [19]): inactive; Activity (Proteus vulgaris [20]): inactive; Activity (Micrococcus luteus [21]): inactive; Activity (Staphylococcus aureus [22]): inactive; Activity (Staphylococcus cohnii [23]): inactive; inhibition (Hepacivirus hominis): 8% |
| CC(C(=O)N/N=C/c1ccc(F)cc1)c1ccc(-c2ccccc2)c(F)c1 (configuration not stated) | inactive | inactive | inactive | inactive | inactive | inactive | inactive | inactive | inactive | inactive | inactive | inactive | inactive | inactive | inactive | inactive | inactive | inactive | inactive | inactive | Activity (Klebsiella aerogenes [14]): inactive; Activity [15]: inactive; Activity (Salmonella paratyphi [16]): inactive; Activity (Micrococcus lylae [17]): inactive; Activity (Pseudomonas aeruginosa [18]): inactive; Activity (Escherichia coli [19]): inactive; Activity (Proteus vulgaris [20]): inactive; Activity (Micrococcus luteus [21]): inactive; Activity (Staphylococcus aureus [22]): inactive; Activity (Staphylococcus cohnii [23]): inactive; inhibition (Hepacivirus hominis): 8% |
| CC(C(=O)NNC(=S)NC1CCCCC1)c1ccc(-c2ccccc2)c(F)c1 (configuration not stated) | inactive | inactive | inactive | inactive | inactive | inactive | inactive | inactive | inactive | inactive | inactive | inactive | inactive | inactive | inactive | inactive | inactive | inactive | inactive | inactive | Activity (Klebsiella aerogenes [14]): inactive; Activity [15]: inactive; Activity (Salmonella paratyphi [16]): inactive; Activity (Micrococcus lylae [17]): inactive; Activity (Pseudomonas aeruginosa [18]): inactive; Activity (Escherichia coli [19]): inactive; Activity (Proteus vulgaris [20]): inactive; Activity (Micrococcus luteus [21]): inactive; Activity (Staphylococcus aureus [22]): inactive; Activity (Staphylococcus cohnii [23]): inactive; inhibition (Hepacivirus hominis): 8% |
| CC(C(=O)N/N=C/c1ccc([N+](=O)[O-])cc1)c1ccc(-c2ccccc2)c(F)c1 (configuration not stated) | inactive | inactive | inactive | inactive | inactive | inactive | inactive | inactive | inactive | inactive | inactive | inactive | inactive | inactive | inactive | inactive | inactive | inactive | inactive | inactive | Activity (Klebsiella aerogenes [14]): inactive; Activity [15]: inactive; Activity (Salmonella paratyphi [16]): inactive; Activity (Micrococcus lylae [17]): inactive; Activity (Pseudomonas aeruginosa [18]): inactive; Activity (Escherichia coli [19]): inactive; Activity (Proteus vulgaris [20]): inactive; Activity (Micrococcus luteus [21]): inactive; Activity (Staphylococcus aureus [22]): inactive; Activity (Staphylococcus cohnii [23]): inactive; inhibition (Hepacivirus hominis): 8% |
| CC(C(=O)N/N=C/c1ccc(Cl)cc1)c1ccc(-c2ccccc2)c(F)c1 (configuration not stated) | inactive | inactive | inactive | inactive | inactive | inactive | inactive | inactive | inactive | inactive | inactive | inactive | inactive | inactive | inactive | inactive | inactive | inactive | inactive | inactive | Activity (Klebsiella aerogenes [14]): inactive; Activity [15]: inactive; Activity (Salmonella paratyphi [16]): inactive; Activity (Micrococcus lylae [17]): inactive; Activity (Pseudomonas aeruginosa [18]): inactive; Activity (Escherichia coli [19]): inactive; Activity (Proteus vulgaris [20]): inactive; Activity (Micrococcus luteus [21]): inactive; Activity (Staphylococcus aureus [22]): inactive; Activity (Staphylococcus cohnii [23]): inactive; inhibition (Hepacivirus hominis): 8% |
